# Source: patent US10188636B2 (Cipla (UK) Limited, priority 2015, dated 2019)
# Legend:
# [1] = tested on: primary rat mixed cortical cultures; assay: Aβ1-42-induced cell death (LDH release) in primary mixed cortical cultures; format: cell-based; conditions: 37° C., 5% CO2, 72 hours, varied concentrations, FIG. 1
# Method: Mixed cortical cultures are prepared from E18 Wistar rat embryos. The cortices are dissected out and tissue cut into small pieces. The cells are separated by 15-min incubation with DNase and papain. The cells are collected by centrifugation (1500 rpm, 5 min). […] After 3-4 h, the medium is changed to MEM (2 g/L glucose) supplemented with 2 mM glutamine, 10 μg/mL gentamicin, 5% HS-HI. After three days in vitro, medium containing MEM (Minimum Essential Media) (2 g/L glucose) supplemented with glutamine, gentamicin and 5% […] is changed to the cells. On day 6 in vitro, the unwanted cell division is inhibited by adding cytosine arabinoside (10 μM final concentration) for 24 h. The cultures refed with MEM (2 g/L glucose) supplemented with glutamine, gentamicin and 5% HS-HI before experiments. Aß1-42 Exposure The wells in good shape are chosen for experiment on day 10 in vitro. Test compounds are diluted in MEM (2 g/L glucose) supplemented with L-glutamine, gentamicin, and 5% HS-HI. […] The absorbance at 340 nm is measured immediately using a 3-min kinetic measurement protocol in Multiskan FC ELISA reader (Thermo, Finland). The change in absorbance/min is determined, which is directly proportional to the released LDH (=cell death).
# [2] = tested on: APPSwDI/NOS2−/− mice; assay: Contextual Fear Conditioning test in APPSwDI/NOS2−/− transgenic mice; format: in vivo; conditions: once-a-day p.o., after two months of treatment, vs vehicle, FIG. 2
# Method: -/- are double transgenic mice which display […] spatial memory, neuronal loss and neurofibrillary tangle like pathology. […] Treatment was continued for 2.5 months. After two months of treatment, starting at the age of 14.5 months the mice were subjected to Contextual Fear Conditioning (CFC) test. The test was performed as follows Training consisted of placing a mouse in a chamber, bright house light on, and allowing exploration for 2 min. Afterward an auditory cue (1700 Hz, 80 dB, conditioned stimulus (CS)) was presented for 15 s. A 2 s foot shock (1.5 mA; unconditioned stimulus (US)) was administered for the final 2 s of the CS. This procedure was repeated, and the mouse was removed from the chamber 30 s later. Twenty hours (±30 min) after the training, the mouse was returned to the same chamber in which the training occurred (memory for context), and freezing behavior was recorded by a computerized camera tracking system. The automated Freeze Frame system, which digitized the video signal at 4 Hz and compared movement of the mouse frame by frame, was used to score the amount of freezing. At the end of the 5 min context test, the mouse was returned to its home cage. Freezing scores for each subject were expressed as a percentage for memory for context.
# [3] = tested on: GFAP; assay: GFAP immunohistochemistry in icv streptozotocin-induced Alzheimer's disease model; format: in vivo; conditions: icv-STZ mice, oral once daily day 0 to day 14; betahistine 30 and 100 mg/kg, donepezil 0.5 mg/kg; compared with Vehicle group; FIG. 3
# Method: (§1) Seven-week-old male C57BL/6 mice were obtained from Japan SLC, (Japan). The animals were maintained in a SPF facility under controlled conditions of temperature (23±2° C.), humidity (45±10%), lighting (12-hour artificial light and dark cycles; light from 8:00 to 20:00) and air exchange. On day 0 and day 2, 60 mice were anesthetized with pentobarbital sodium (Kyoritsu Seiyalu, Japan) and intracerebroventricularly (icy) administered two doses of streptozotocin (STZ, Sigma-Aldrich, USA) in saline at a dose of 3 mg/kg. The icv-STZ-induced Alzheimer's disease model mice were divided into 6 groups of 10 mice based on their body weight on the day before the start of the treatment.
# [4] = tested on: MAP2; assay: MAP2 mRNA expression by quantitative RT-PCR in icv streptozotocin-induced Alzheimer's disease model; format: in vivo, mice; conditions: for Expression levels of MAP2 gene (Mean ± SD): relative mRNA normalized to GAPDH, Vehicle 1.0 ± 0.4
# Method: as §1
# Expression levels of MAP2, a cytoskeletal modulator that has been implicated in the pathogenesis of Alzheimer's disease and a member of MAP2/tau family, was measured by quantitative RT-PCR. Total RNA was extracted from brain samples using RNAiso (Takara Bio, Japan) according to the manufacturer's instructions. One μg of RNA was reverse-transcribed using a reaction mixture containing 4.4 mM MgCl2 (F. Hoffmann-La Roche, Switzerland), 40 U RNase inhibitor (Toyobo, Japan), 0.5 mM dNTP (Promega, USA), 6.28 μM random hexamer (Promega), 5× first strand buffer (Promega), 10 mM dithiothreitol (Invitrogen, USA) and 200 U MMLV-RT (Invitrogen) in a final volume of 20 μL. The reaction was carried out for 1 hour at 37° C., followed by 5 minutes at 99° C. Real-time PCR was performed using real-time PCR DICE and SYBR premix Taq (Takara Bio). To calculate the relative mRNA expression level, the expression of each gene was normalized to that of reference gene GAPDH.
# [5] = molecular target: histamine H3 receptors (Homo sapiens, UniProt Q9Y5N1); conditions: general statement in description; cited from earlier work
# Sequence of histamine H3 receptors (Q9Y5N1 whole entry): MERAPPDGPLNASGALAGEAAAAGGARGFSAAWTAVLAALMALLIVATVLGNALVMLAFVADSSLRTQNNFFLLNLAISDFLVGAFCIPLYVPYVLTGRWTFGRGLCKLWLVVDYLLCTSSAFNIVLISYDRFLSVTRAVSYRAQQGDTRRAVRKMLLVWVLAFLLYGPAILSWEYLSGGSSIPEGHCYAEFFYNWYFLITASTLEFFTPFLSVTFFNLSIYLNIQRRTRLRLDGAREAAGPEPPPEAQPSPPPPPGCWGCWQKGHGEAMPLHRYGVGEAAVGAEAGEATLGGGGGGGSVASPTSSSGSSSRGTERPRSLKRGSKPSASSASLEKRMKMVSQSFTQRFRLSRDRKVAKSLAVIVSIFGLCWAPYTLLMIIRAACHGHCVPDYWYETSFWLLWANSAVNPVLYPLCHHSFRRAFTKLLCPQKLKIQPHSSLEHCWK
SMILES,protective effect against Aβ 1-42-induced cell death [1],Freezing score (memory for context) [2],GFAP-positive area [3],"Expression levels of MAP2 gene (Mean ± SD) ([4]; Betahistine high dose (100 mg/kg p.o. once daily day 0-14), n = 10)","Expression levels of MAP2 gene (Mean ± SD) ([4]; Betahistine low dose (30 mg/kg p.o. once daily day 0-14), n = 10)","MAP2 mRNA expression (in words) ([4]; icv-STZ mice brain, oral once daily day 0 to day 14, normalized to GAPDH)",affinity as an antagonist for histamine H3 receptors [5],"Expression levels of MAP2 gene (Mean ± SD) ([4]; Donepezil 0.5 mg/kg p.o. once daily day 0-14, n = 10)"
CNCCc1ccccn1 [Betahistine],profound protective effect,improved freezing score,significant decreases,0.7 ± 0.2,0.7 ± 0.2,significant down regulation,very strong affinity,–
"COc1cc2c(cc1OC)C(=O)C(CC1CCN(Cc3ccccc3)CC1)C2 (stereo not drawn) [Donepezil, donepezil]",–,–,significant decreases,–,–,–,–,0.7 ± 0.2
